Data: publication PMC10266688 (PLOS ONE, 2023)
Values joined by “and” are separate entries in the source; they are usually repeats but may differ in a detail not shown here. Equal entries are not always repeated. Where two headings read alike, the source gives them in different places.

Experiment: Single administration dose escalation study (MTD, body weight, clinical observations), female CD1 mice
Type: in vivo
Settings: for Body weight change, Mean / Body weight change: day 7 vs initial weight; for Body weight change, Mean: group mean; for MTD at 7 days: mouse, in vivo, female CD1 mice

SMILES: N#Cc1ccc(/C=C2/C(=O)/C(=C/c3ccc(C#N)cc3)C23CCNCC3)cc1 [Up284]
- Body weight, Mean (IV 60 mg/kg single dose, day 4, group mean): 24.93 g
- Body weight (IV 60 mg/kg single dose, day 4, individual mice, 60 mg/kg): 26.6 g and 23.5 g and 24.7 g
- Body weight, Mean (IV 60 mg/kg single dose, day 5, group mean): 24.83 g
- Body weight (IV 60 mg/kg single dose, day 5, individual mice, 60 mg/kg): 26.5 g and 23.3 g and 24.7 g
- Body weight, Mean (IV 60 mg/kg single dose, day 6, group mean): 25.30 g
- Body weight (IV 60 mg/kg single dose, day 6, individual mice, 60 mg/kg): 26.7 g and 24.1 g and 25.1 g
- Body weight, Mean (IV 60 mg/kg single dose, day 7, group mean): 25.27 g
- Body weight (IV 60 mg/kg single dose, day 7, individual mice, 60 mg/kg): 26.6 g and 23.9 g and 25.3 g
- Body weight change, Mean (IV 60 mg/kg single dose): 3.48%
- Body weight change (IV 60 mg/kg single dose, individual mice, 60 mg/kg): 2.31% and 5.29% and 2.85%
- Clinical observation (IV 60 mg/kg, day 0, 0.5 h, individual mice, 60 mg/kg): 0
- Clinical observation (IV 60 mg/kg, day 0, 2 h, individual mice): 0
- Clinical observation (IV 60 mg/kg, day 0, 4 h, individual mice): 0
- Clinical observation (IV 60 mg/kg, day 0, 6 h, individual mice): 0
- Clinical observation (IV 60 mg/kg, day 0, time 0, individual mice): 0
- Clinical observation (IV 60 mg/kg, day 1, individual mice): 0
- Clinical observation (IV 60 mg/kg, day 2, individual mice): 0
- Clinical observation (IV 60 mg/kg, day 3, individual mice): 0
- Clinical observation (IV 60 mg/kg, day 4, individual mice): 0
- Clinical observation (IV 60 mg/kg, day 5, individual mice): 0
- Clinical observation (IV 60 mg/kg, day 6, individual mice): 0
- Clinical observation (IV 60 mg/kg, day 7, individual mice): 0
- Body weight, Mean (PO 100 mg/kg single dose, day 0, group mean): 24.70 g
- Body weight (PO 100 mg/kg single dose, day 0, individual mice, 100 mg/kg): 27.5 g and 24.7 g and 21.9 g
- Body weight, Mean (PO 100 mg/kg single dose, day 1, group mean): 24.30 g
- Body weight (PO 100 mg/kg single dose, day 1, individual mice, 100 mg/kg): 26.4 g and 24.4 g and 22.1 g
- Body weight, Mean (PO 100 mg/kg single dose, day 2, group mean): 24.77 g
- Body weight (PO 100 mg/kg single dose, day 2, individual mice, 100 mg/kg): 27.0 g and 24.5 g and 22.8 g
- Body weight, Mean (PO 100 mg/kg single dose, day 3, group mean): 25.10 g
- Body weight (PO 100 mg/kg single dose, day 3, individual mice, 100 mg/kg): 27.2 g and 25.0 g and 23.1 g
- Body weight, Mean (PO 100 mg/kg single dose, day 4, group mean): 25.30 g
- Body weight (PO 100 mg/kg single dose, day 4, individual mice, 100 mg/kg): 27.9 g and 24.5 g and 23.5 g
- Body weight, Mean (PO 100 mg/kg single dose, day 5, group mean): 24.77 g
- Body weight (PO 100 mg/kg single dose, day 5, individual mice, 100 mg/kg): 26.9 g and 24.4 g and 23.0 g
- Body weight, Mean (PO 100 mg/kg single dose, day 6, group mean): 25.50 g
- Body weight (PO 100 mg/kg single dose, day 6, individual mice, 100 mg/kg): 28.4 g and 25.0 g and 23.1 g
- Body weight, Mean (PO 100 mg/kg single dose, day 7, group mean): 26.10 g
- Body weight (PO 100 mg/kg single dose, day 7, individual mice, 100 mg/kg): 29.3 g and 25.6 g and 23.4 g
- Body weight change, Mean (PO 100 mg/kg single dose): 5.68%
- Body weight change (PO 100 mg/kg single dose, individual mice, 100 mg/kg): 6.55% and 3.64%
- Clinical observation (PO 100 mg/kg, day 0, 0.5 h, individual mice): 0
- Clinical observation (PO 100 mg/kg, day 0, 2 h, individual mice): 0
- Clinical observation (PO 100 mg/kg, day 0, 4 h, individual mice): 0
- Clinical observation (PO 100 mg/kg, day 0, 6 h, individual mice): 0
- Clinical observation (PO 100 mg/kg, day 0, time 0, individual mice): 0
- Clinical observation (PO 100 mg/kg, day 1, individual mice): 0
- Clinical observation (PO 100 mg/kg, day 2, individual mice): 0
- Clinical observation (PO 100 mg/kg, day 3, individual mice): 0
- Clinical observation (PO 100 mg/kg, day 4, individual mice): 0
- Clinical observation (PO 100 mg/kg, day 5, individual mice): 0
- Clinical observation (PO 100 mg/kg, day 6, individual mice): 0
- Clinical observation (PO 100 mg/kg, day 7, individual mice): 0
- Body weight, Mean (PO 200 mg/kg single dose, day 0, group mean): 24.70 g
- Body weight, Mean (PO 200 mg/kg single dose, day 1, group mean): 24.90 g
- Body weight, Mean (PO 200 mg/kg single dose, day 2, group mean): 25.17 g
- Body weight, Mean (PO 200 mg/kg single dose, day 3, group mean): 25.07 g
- Body weight, Mean (PO 200 mg/kg single dose, day 4, group mean): 25.40 g
- Body weight, Mean (PO 200 mg/kg single dose, day 5, group mean): 25.33 g
- Body weight, Mean (PO 200 mg/kg single dose, day 6, group mean): 25.63 g
- Body weight, Mean (PO 200 mg/kg single dose, day 7, group mean): 25.87 g
- Body weight (PO 200 mg/kg single dose, day 7, individual mice, 200 mg/kg): 26.3 g
- Body weight change, Mean (PO 200 mg/kg single dose): 4.87%
- Body weight change (PO 200 mg/kg single dose, individual mice, 200 mg/kg): 8.68% and 0.00% and 5.93%
- Clinical observation (PO 200 mg/kg, day 0, 0.5 h, individual mice): 0
- Clinical observation (PO 200 mg/kg, day 0, 2 h, individual mice): 0
- Clinical observation (PO 200 mg/kg, day 0, 4 h, individual mice): 0
- Clinical observation (PO 200 mg/kg, day 0, 6 h, individual mice): 0
- Clinical observation (PO 200 mg/kg, day 0, time 0, individual mice): 0
- Clinical observation (PO 200 mg/kg, day 1, individual mice): 0
- Clinical observation (PO 200 mg/kg, day 2, individual mice): 0
- Clinical observation (PO 200 mg/kg, day 3, individual mice): 0
- Clinical observation (PO 200 mg/kg, day 4, individual mice): 0
- Clinical observation (PO 200 mg/kg, day 5, individual mice): 0
- Clinical observation (PO 200 mg/kg, day 6, individual mice): 0
- Clinical observation (PO 200 mg/kg, day 7, individual mice): 0
- MTD at 7 days (ip, read-out: MTD, single IP dose): 40 mg/kg
- MTD at 7 days (iv, read-out: MTD, single IV dose (not reached at maximum feasible dose)): ≥ 60 mg/kg
- MTD at 7 days (po, read-out: MTD, single PO dose (not reached at maximum feasible dose)): ≥ 200 mg/kg
